Target: T1, IRAK4 (Homo sapiens, UniProt Q9NWZ3)
T1 sequence (Q9NWZ3 1-460): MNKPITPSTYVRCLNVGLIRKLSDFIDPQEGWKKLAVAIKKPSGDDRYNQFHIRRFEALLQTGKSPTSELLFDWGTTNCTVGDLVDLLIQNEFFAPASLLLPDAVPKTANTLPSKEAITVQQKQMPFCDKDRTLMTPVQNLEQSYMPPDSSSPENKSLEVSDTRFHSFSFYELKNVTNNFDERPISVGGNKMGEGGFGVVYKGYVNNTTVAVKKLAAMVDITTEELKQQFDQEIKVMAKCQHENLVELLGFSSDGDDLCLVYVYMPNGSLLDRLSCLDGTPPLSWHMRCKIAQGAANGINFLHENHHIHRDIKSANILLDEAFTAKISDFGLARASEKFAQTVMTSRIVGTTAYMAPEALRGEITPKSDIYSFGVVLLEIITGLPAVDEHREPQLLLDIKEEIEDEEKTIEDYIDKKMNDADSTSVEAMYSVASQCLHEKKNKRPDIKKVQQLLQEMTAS
Test: OCI-LY-10 degradation assay (western blot, % IRAK4 degraded after 4 hours)
Assay type: cell-based
Design: endogenous in cells; host or cells: OCI-LY10
Conditions: OCI-LY10 cells; for OCI-LY10 % IRAK4 Degradation: IRAK4 degraded after 4 hours, western blot; for OCI-LY10 % IRAK4 Degradation (0.01 uM) / OCI-LY10 % IRAK4 Degradation (0.1 uM) / OCI-LY10 % IRAK4 Degradation (1 uM): 4 hours; for OCI-LY10 % IRAK4 Degradation (0.01 uM): 0.01 uM compound; for OCI-LY10 % IRAK4 Degradation (0.1 uM): 0.1 uM compound; for OCI-LY10 % IRAK4 Degradation (1 uM): 1 uM compound
Outline: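 OCI-LY10 cells (RPMI-1640, 20% FBS, 55 μM 2-ME) treated with compound at 0.003-10 μM final for 4 h at 37° C, then lysed in RIPA buffer. IRAK4 level read by fluorescent western blot (20-25 μg protein) and binned as % degraded: A >50%, B >20-50%, C <20%.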

Structure (SMILES) | OCI-LY10 % IRAK4 Degradation | OCI-LY10 % IRAK4 Degradation (0.01 uM) | OCI-LY10 % IRAK4 Degradation (0.1 uM) | OCI-LY10 % IRAK4 Degradation (1 uM)
NC(=O)c1nn(-c2ccc(COCCOCCOCCOCCNC(=O)COc3cccc4c3C(=O)N(C3CCC(=O)NC3=O)C4=O)cc2)cc1NC(=O)c1coc(-c2ccnc(NCC(F)(F)F)c2)n1 (stereo not shown) [I-105, N-[3-carbamoyl-1-[4-[2-[2-[2-[2-[[2-[2-(2,6-dioxo-3-piperidyl)-1,3-dioxo-isoindolin-4-yl]oxyacetyl]amino]ethoxy]ethoxy]ethoxy]ethoxymethyl]phenyl]pyrazol-4-yl]-2-[2-(2,2,2-trifluoroethylamino)-4-pyridyl]oxazole-4-carboxamide] | A (>50% degradation) |  |  | 
O=C1CCC(N2C(=O)c3cccc(NCCCCCNCCNC(=O)c4ccc(-n5cc(NC(=O)c6coc(-c7ccnc(NCC8CC8)c7)n6)c(C(F)F)n5)cc4)c3C2=O)C(=O)N1 (stereo not shown) [I-245] |  | C (<20% degradation) | B (>20-50% degradation) | A (>50% degradation)
Cc1ccc(NS(=O)(=O)c2ccc(CNC(=O)COCCOCCOCCOCCOCCNC(=O)c3ccc(-n4cc(NC(=O)c5coc(-c6ccnc(NCC(F)(F)F)c6)n5)c(C(N)=O)n4)cc3)cc2)c2[nH]cc(C#N)c12 [I-114] | C (<20% degradation) |  |  | 
Cc1ncsc1-c1ccc(CNC(=O)[C@@H]2C[C@@H](O)CN2C(=O)[C@@H](NC(=O)COCCCCCOCCCCCNC(=O)CN2CCC(Nc3cccc(-c4cnc5ccc(C#N)cn45)n3)C2)C(C)(C)C)cc1 (stereo partly shown) [I-205] | C (<20% degradation) |  |  | 
O=C1CCC(N2C(=O)c3cccc(N4CCN(CCOCCOCCOCCNC(=O)c5ccc(-n6cc(NC(=O)c7coc(-c8ccnc(NCC9CC9)c8)n7)c(C(F)F)n6)cc5)CC4)c3C2=O)C(=O)N1 (stereo not shown) [I-275] |  | C (<20% degradation) | B (>20-50% degradation) | A (>50% degradation)
CC[C@@H]1[C@H](F)C(=O)N[C@@H]1COc1ncc(C#Cc2ccc(OCCOCCOCCOCCNc3cccc4c3C(=O)N(C3CCC(=O)NC3=O)C4=O)cc2)c2cc(C(N)=O)c(OC)cc12 (stereo partly drawn) [I-425, 4-[2-[4-[2-[2-[2-[2-[[2-(2,6-Dioxo-3-piperidyl)-1,3-dioxo-isoindolin-4-yl]amino]ethoxy]ethoxy]ethoxy]ethoxy]phenyl]ethynyl]-1-[[(2S,3S,4S)-3-ethyl-4-fluoro-5-oxo-pyrrolidin-2-yl]methoxy]-7-methoxy-isoquinoline-6-carboxamide] |  | B (>20-50% degradation) | A (>50% degradation) | A (>50% degradation)
NC(=O)c1nn(-c2ccc(C(=O)NCCOCCOCCNc3cccc4c3C(=O)N(C3CCC(=O)NC3=O)C4=O)cc2)cc1NC(=O)c1cccc(-c2ccnc(NCC(F)(F)F)c2)n1 (stereo not shown) [I-137] | B (>20-50% degradation) |  |  | 
NC(=O)c1nn(-c2ccc(CNCC3CCCCN3CCOCCNc3cccc4c3C(=O)N(C3CCC(=O)NC3=O)C4=O)cc2)cc1NC(=O)c1coc(-c2ccnc(NCC(F)(F)F)c2)n1 (stereo not shown) [I-306] |  | C (<20% degradation) | B (>20-50% degradation) | B (>20-50% degradation)
O=C1CCC(N2C(=O)c3cccc(OCC(F)CNC(=O)c4cnc(Nc5ccc6cnccc6n5)cc4NC4CC4)c3C2=O)C(=O)N1 (stereo not shown) [I-174, 4-(Cyclopropylamino)-N-[3-[2-(2,6-dioxo-3-piperidyl)-1,3-dioxo-isoindolin-4-yl]oxy-2-fluoro-propyl]-6-(1,6-naphthyridin-2-ylamino)pyridine-3-carboxamide] | C (<20% degradation) |  |  | 
O=C1CCC(N2C(=O)c3cccc(NC4CCN(CCOCCNCc5ccc(-n6cc(NC(=O)c7coc(-c8ccnc(NCC9CC9)c8)n7)c(C(F)F)n6)cc5)CC4)c3C2=O)C(=O)N1 (stereo not shown) [I-385] |  | C (<20% degradation) | B (>20-50% degradation) | B (>20-50% degradation)
CN(CCOCCOCCOCCOCCNc1cccc2c1C(=O)N(C1CCC(=O)NC1=O)C2=O)C(=O)[C@H]1CC[C@H](NC(=O)c2cnc(-n3ncc4cc(C#N)cnc43)cc2NC2CC2)CC1 (stereo partly shown) [I-38] | C (<20% degradation) |  |  | 
CN(CCNCCCc1cccc2c1C(=O)N(C1CCC(=O)NC1=O)C2=O)C(=O)c1ccc(-n2cc(NC(=O)c3coc(-c4ccncc4)n3)c(C(F)F)n2)cc1 (stereo not shown) [I-364] |  | C (<20% degradation) | C (<20% degradation) | C (<20% degradation)
Cc1ccc(NS(=O)(=O)c2ccc(CNC(=O)COCCOCCOCCOCCNC(=O)c3ccc(-n4cc(NC(=O)c5coc(-c6ccnc(NCC(F)(F)F)c6)n5)c(C(N)=O)n4)cc3)cc2)c2[nH]cc(C#N)c12 [I-113] | C (<20% degradation) |  |  | 
NC(=O)c1nn(-c2ccc(C(=O)NCCOCCOCCNc3cccc4c3C(=O)N(C3CCC(=O)NC3=O)C4=O)cc2)cc1NC(=O)c1coc(-c2ccncc2)n1 (stereo not shown) [I-140] | B (>20-50% degradation) |  |  | 
CN(CCCc1cccc2c1C(=O)N(C1CCC(=O)NC1=O)C2=O)Cc1ccc(-n2cc(NC(=O)c3coc(-c4ccncc4)n3)c(C(N)=O)n2)cc1 (stereo not shown) [I-356] |  | C (<20% degradation) | C (<20% degradation) | C (<20% degradation)
O=C1CCC(N2C(=O)c3ccc(CCCOCCNCc4ccc(-n5cc(NC(=O)c6coc(-c7ccncc7)n6)c(C(F)F)n5)cc4)cc3C2=O)C(=O)N1 (stereo not shown) [I-382] |  | C (<20% degradation) | C (<20% degradation) | B (>20-50% degradation)
CN(CCCCCCc1cccc2c1C(=O)N(C1CCC(=O)NC1=O)C2=O)Cc1ccc(-n2cc(NC(=O)c3coc(-c4ccnc(NCC5CC5)c4)n3)c(C(N)=O)n2)cc1 (stereo not shown) [I-314] |  | C (<20% degradation) | B (>20-50% degradation) | B (>20-50% degradation)
O=C1CCC(N2C(=O)c3cccc(CCCOCCNC(=O)c4ccc(-n5cc(NC(=O)c6coc(-c7ccnc(NCC8CC8)c7)n6)c(C(F)F)n5)cc4)c3C2=O)C(=O)N1 (stereo not shown) [I-243] |  | C (<20% degradation) | C (<20% degradation) | C (<20% degradation)
CC(C)(OCCOCCOCCNc1cccc2c1C(=O)N(C1CCC(=O)NC1=O)C2=O)C(F)CNC(=O)c1cnc(Nc2ncc(C#N)cc2F)cc1NC1CC1 (stereo not shown) [I-67] | C (<20% degradation) |  |  | 
CC[C@@H]1[C@H](F)C(=O)N(CCOCCOCCOCCOCCNc2cccc3c2C(=O)N(C2CCC(=O)NC2=O)C3=O)[C@@H]1COc1nccc2cc(C(N)=O)c(OC)cc12 (stereo partly drawn) [I-89, 1-[[(2S,3S,4S)-1-[2-[2-[2-[2-[2-[[2-(2,6-dioxo-3-piperidyl)-1,3-dioxo-isoindolin-4-yl]amino]ethoxy]ethoxy]ethoxy]ethoxy]ethyl]-3-ethyl-4-fluoro-5-oxo-pyrrolidin-2-yl]methoxy]-7-methoxy-isoquinoline-6-carboxamide] | C (<20% degradation) |  |  | 
Cn1c(=O)n(C2CCC(=O)NC2=O)c2ccc(CCCOCCOCCNC(=O)c3ccc(-n4cc(NC(=O)c5coc(-c6ccnc(NCC(F)(F)F)c6)n5)c(C(N)=O)n4)cc3)cc21 (stereo not shown) [I-248] |  | B (>20-50% degradation) | A (>50% degradation) | A (>50% degradation)
CC(C)(OCCOCCNC(=O)COc1cccc2c1C(=O)N(C1CCC(=O)NC1=O)C2=O)C(F)CNC(=O)c1cnc(-n2ncc3cc(C#N)cnc32)cc1NC1CC1 (stereo not shown) [I-101] | C (<20% degradation) |  |  | 
N#Cc1cnc2c(cnn2-c2cc(NC3CC3)c(C(=O)N[C@H]3CC[C@H](COCCOCCOCCNc4cccc5c4C(=O)N(C4CCC(=O)NC4=O)C5=O)CC3)cn2)c1 (stereo partly shown) [I-32] | C (<20% degradation) |  |  | 
CC(OCCNc1cccc2c1C(=O)N(C1CCC(=O)NC1=O)C2=O)C(F)CNC(=O)c1cnc(-n2ncc3cc(C#N)cnc32)cc1NC1CC1 (stereo not shown) [I-83] | C (<20% degradation) |  |  | 

Source: patent US10874743B2, “IRAK degraders and uses thereof” (Kymera Therapeutics, Inc., priority 2017, dated 2020)
